Measurements: US12195439B1, “C1-substituted isopropylamine fused heterocyclic mescaline derivatives” (Enveric Biosciences Canada Inc., priority 2022, dated 2025)

target: T1, 5-HT1A receptor (Homo sapiens, UniProt P08908); assay: 5-HT1A receptor radioligand competition assay (SPA); type: binding; details: 5-HT1A, Ki, competition with 0.5 nM [3H]8-hydroxy-DPAT, membranes containing 5-HT1A
T1 construct: purchased Perkin Elmer 6110501400UA
T1 sequence (P08908 1-422): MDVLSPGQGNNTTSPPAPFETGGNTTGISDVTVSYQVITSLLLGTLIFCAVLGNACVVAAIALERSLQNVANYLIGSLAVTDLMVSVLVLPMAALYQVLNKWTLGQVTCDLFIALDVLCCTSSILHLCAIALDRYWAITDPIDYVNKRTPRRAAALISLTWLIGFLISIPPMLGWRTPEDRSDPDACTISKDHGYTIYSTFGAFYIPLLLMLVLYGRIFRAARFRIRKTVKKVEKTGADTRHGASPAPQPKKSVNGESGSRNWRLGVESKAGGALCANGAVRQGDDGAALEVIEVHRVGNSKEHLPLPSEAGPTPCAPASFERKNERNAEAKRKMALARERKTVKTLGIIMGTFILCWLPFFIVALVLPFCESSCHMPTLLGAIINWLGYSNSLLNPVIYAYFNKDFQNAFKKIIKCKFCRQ

| Structure (SMILES) | Ki [µM] |
| --- | --- |
| C[S+](C)[O-] [DMSO, dimethylsulfoxide] | > 1000 |
| CC(C(O)c1ccc2c(c1)OCO2)N(C)Cc1ccccc1 (stereo not drawn) [B(III) as diast. (iv)] | 16.9 |
| CC(NCc1ccccc1)C(C)c1ccc2c(c1)OCO2 (stereo not drawn) [Ex(VI) as diast. (xi) and (xii)] | 65.9 |

target: T1, 5-HT1A receptor; assay: Eurofins Cerep competition binding assay at 5-HT1A receptor; details: 10 μM test ligand, [3H]8-OH-DPAT, recombinant receptor from HEK-293 cells

| Structure (SMILES) | HT1A, percent of control-specific binding [%] |
| --- | --- |
| COc1cc(CC(C)N)c(OC)cc1Br (stereo not drawn) [DOB] | 75 |

same assay, conditions: 10 μM test ligand, [3H]8-OH-DPAT, recombinant receptor from HEK-293 cells; read-out: HT1A, percent of control-specific binding

| Structure (SMILES) | inhibition at 10 µM [%] |
| --- | --- |
| CNCC[C@H](Oc1cccc2ccccc12)c1cccs1 [Duloxetine, duloxetine] | 95 |
| COc1ccc2[nH]cc(CCNC(C)=O)c2c1 [Melatonin, melatonin] | 46 |

target: T2, 5-HT2B receptor (Homo sapiens, UniProt P41595); assay: Eurofins Cerep competition binding assay at 5-HT2B receptor; details: 10 μM test ligand, [3H]mesulergine, recombinant receptor from CHO cells
T2 construct: host or cells: CHO cells (membrane preparation)
T2 sequence (P41595 whole entry): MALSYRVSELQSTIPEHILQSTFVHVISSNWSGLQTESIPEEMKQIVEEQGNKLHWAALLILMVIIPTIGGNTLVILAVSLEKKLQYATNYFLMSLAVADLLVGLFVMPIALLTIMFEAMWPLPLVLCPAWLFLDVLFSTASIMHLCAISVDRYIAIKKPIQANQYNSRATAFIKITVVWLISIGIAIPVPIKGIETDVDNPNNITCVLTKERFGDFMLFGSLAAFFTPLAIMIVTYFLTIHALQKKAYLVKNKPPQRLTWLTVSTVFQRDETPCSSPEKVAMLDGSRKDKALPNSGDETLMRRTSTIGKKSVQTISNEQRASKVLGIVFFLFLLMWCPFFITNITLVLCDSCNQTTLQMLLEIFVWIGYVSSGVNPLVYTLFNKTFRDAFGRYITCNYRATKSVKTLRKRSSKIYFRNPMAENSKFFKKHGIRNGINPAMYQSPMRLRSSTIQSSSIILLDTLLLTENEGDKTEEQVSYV

| Structure (SMILES) | HT2B, percent of control-specific binding [%] |
| --- | --- |
| COc1cc(CC(C)N)c(OC)cc1Br (stereo not drawn) [DOB] | 97 |

same assay, conditions: 10 μM test ligand, [3H]mesulergine, recombinant receptor from CHO cells; read-out: HT2B, percent of control-specific binding

| Structure (SMILES) | inhibition at 10 µM [%] |
| --- | --- |
| CNCC[C@H](Oc1cccc2ccccc12)c1cccs1 [Duloxetine, duloxetine] | 95 |
| COc1ccc2[nH]cc(CCNC(C)=O)c2c1 [Melatonin, melatonin] | 52 |

target: T3, 5-HT2C receptor (Homo sapiens, UniProt P28335); assay: Eurofins Cerep competition binding assay at 5-HT2C receptor; details: 10 μM test ligand, [125I](±)DOI, recombinant receptor from HEK-293 cells; read-out: HT2C, percent of control-specific binding
T3 construct: host or cells: HEK-293 cells (membrane preparation)
T3 sequence (P28335 33-458): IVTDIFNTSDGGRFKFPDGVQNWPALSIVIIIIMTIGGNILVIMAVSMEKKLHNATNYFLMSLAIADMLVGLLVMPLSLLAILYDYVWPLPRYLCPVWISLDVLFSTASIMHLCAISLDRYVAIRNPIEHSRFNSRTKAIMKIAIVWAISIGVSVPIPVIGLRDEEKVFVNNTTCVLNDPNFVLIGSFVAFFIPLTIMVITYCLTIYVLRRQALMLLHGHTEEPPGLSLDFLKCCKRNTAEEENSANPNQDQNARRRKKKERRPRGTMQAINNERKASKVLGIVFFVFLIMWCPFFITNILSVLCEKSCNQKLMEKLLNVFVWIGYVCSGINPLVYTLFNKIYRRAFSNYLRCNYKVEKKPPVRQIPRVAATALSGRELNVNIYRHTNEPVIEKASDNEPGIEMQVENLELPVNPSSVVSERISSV

| Structure (SMILES) | inhibition at 10 µM [%] |
| --- | --- |
| CNCC[C@H](Oc1cccc2ccccc12)c1cccs1 [Duloxetine, duloxetine] | 92 |
| COc1ccc2[nH]cc(CCNC(C)=O)c2c1 [Melatonin, melatonin] | 19 |

target: T4, 5-HT7 receptor (Homo sapiens, UniProt P34969); assay: Eurofins Cerep competition binding assay at 5-HT7 receptor; details: 10 μM test ligand, [3H]LSD, recombinant receptor from HEK-293 cells
T4 construct: host or cells: HEK-293 cells (membrane preparation)
T4 sequence (P34969 whole entry): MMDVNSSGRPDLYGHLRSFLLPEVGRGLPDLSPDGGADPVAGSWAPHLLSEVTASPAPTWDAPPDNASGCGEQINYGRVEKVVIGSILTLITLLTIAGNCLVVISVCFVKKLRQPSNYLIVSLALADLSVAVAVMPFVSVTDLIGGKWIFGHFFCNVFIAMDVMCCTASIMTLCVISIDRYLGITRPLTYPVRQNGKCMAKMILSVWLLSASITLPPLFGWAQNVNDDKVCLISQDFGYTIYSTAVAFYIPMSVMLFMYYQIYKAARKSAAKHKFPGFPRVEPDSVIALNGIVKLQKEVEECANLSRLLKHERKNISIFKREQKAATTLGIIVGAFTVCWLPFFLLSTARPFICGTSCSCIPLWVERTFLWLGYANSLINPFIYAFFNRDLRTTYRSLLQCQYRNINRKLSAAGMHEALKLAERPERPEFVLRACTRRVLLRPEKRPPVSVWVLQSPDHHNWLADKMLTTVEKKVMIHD

| Structure (SMILES) | HT7, percent of control-specific binding [%] |
| --- | --- |
| COc1cc(CC(C)N)c(OC)cc1Br (stereo not drawn) [DOB] | 65 |

same assay, conditions: 10 μM test ligand, [3H]LSD, recombinant receptor from HEK-293 cells; read-out: HT7, percent of control-specific binding

| Structure (SMILES) | inhibition at 10 µM [%] |
| --- | --- |
| COc1ccc2[nH]cc(CCNC(C)=O)c2c1 [Melatonin, melatonin] | 8 |

target: T5, alpha2A receptor (Homo sapiens, UniProt P08913); assay: Eurofins Cerep competition binding assay at alpha2A receptor; details: 10 μM test ligand, [3H]RX 821002, recombinant receptor from CHO cells
T5 construct: host or cells: CHO cells (membrane preparation)
T5 sequence (P08913 1-465): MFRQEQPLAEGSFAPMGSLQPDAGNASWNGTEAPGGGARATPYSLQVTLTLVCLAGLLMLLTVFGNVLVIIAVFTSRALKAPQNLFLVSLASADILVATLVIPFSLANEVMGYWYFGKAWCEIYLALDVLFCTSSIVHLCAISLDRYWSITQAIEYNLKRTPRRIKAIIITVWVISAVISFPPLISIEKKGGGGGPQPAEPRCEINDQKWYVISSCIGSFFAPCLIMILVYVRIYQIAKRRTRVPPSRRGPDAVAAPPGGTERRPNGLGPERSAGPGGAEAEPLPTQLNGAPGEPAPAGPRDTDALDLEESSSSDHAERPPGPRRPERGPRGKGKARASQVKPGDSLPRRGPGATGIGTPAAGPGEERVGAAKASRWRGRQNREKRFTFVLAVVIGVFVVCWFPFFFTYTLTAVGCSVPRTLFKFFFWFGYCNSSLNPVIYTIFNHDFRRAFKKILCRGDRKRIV

| Structure (SMILES) | α-2A, percent of control-specific binding [%] |
| --- | --- |
| COc1cc(CC(C)N)c(OC)cc1Br (stereo not drawn) [DOB] | 66 |

same assay, conditions: 10 μM test ligand, [3H]RX 821002, recombinant receptor from CHO cells; read-out: α-2A, percent of control-specific binding

| Structure (SMILES) | inhibition at 10 µM [%] |
| --- | --- |
| CNCC[C@H](Oc1cccc2ccccc12)c1cccs1 [Duloxetine, duloxetine] | 54 |
| COc1ccc2[nH]cc(CCNC(C)=O)c2c1 [Melatonin, melatonin] | -7 |

target: T6, serotonin transporter (SERT) (Homo sapiens, UniProt P31645); assay: biochemical; type: binding; details: 10 µM
T6 construct: host or cells: CHO cells (membrane preparation)
T6 sequence (P31645 whole entry): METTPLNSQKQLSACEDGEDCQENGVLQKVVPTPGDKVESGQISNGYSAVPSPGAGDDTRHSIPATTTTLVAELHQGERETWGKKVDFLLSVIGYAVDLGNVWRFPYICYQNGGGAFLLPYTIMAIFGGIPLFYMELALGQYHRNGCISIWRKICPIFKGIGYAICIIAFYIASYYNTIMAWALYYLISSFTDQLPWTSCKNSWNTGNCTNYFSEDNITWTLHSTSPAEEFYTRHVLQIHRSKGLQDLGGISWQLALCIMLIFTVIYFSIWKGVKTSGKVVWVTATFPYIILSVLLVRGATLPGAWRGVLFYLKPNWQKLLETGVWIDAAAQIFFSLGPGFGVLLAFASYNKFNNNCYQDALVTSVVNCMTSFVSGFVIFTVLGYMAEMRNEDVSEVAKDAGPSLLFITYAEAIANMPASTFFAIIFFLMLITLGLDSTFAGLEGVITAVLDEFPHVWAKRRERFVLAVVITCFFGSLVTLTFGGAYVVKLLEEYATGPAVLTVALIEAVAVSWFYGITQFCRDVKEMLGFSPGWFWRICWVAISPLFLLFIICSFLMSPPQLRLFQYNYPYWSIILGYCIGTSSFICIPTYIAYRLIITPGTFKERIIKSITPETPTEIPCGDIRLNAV

| Structure (SMILES) | SERT, percent of control-specific binding [%] |
| --- | --- |
| COc1cc(CC(C)N)c(OC)cc1Br (stereo not drawn) [DOB] | 53 |

target: T7, dopamine transporter (DAT) (Homo sapiens, UniProt Q01959); assay: Eurofins Cerep competition binding assay at dopamine transporter; details: 10 μM test ligand, [3H]BTCP, recombinant transporter from CHO cells
T7 construct: host or cells: CHO cells (membrane preparation)
T7 sequence (Q01959 whole entry): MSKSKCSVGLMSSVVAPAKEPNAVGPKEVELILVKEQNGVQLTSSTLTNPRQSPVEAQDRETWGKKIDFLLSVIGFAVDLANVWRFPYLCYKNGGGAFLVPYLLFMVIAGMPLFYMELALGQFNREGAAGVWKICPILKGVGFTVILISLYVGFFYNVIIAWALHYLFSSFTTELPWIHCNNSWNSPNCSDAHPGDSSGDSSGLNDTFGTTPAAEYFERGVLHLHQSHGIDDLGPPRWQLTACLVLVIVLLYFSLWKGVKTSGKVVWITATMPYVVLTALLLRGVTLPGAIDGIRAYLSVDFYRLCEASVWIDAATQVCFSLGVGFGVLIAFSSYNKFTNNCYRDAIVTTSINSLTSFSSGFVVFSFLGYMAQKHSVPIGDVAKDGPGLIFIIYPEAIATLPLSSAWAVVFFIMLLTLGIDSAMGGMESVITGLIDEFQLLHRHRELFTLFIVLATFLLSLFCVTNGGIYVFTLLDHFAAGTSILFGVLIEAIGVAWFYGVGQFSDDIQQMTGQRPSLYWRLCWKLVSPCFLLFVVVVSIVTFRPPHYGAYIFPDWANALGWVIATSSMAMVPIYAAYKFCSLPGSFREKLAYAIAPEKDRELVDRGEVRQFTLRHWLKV

| Structure (SMILES) | DAT, percent of control-specific binding [%] |
| --- | --- |
| COc1cc(CC(C)N)c(OC)cc1Br (stereo not drawn) [DOB] | 3 |

same assay, conditions: read-out: DAT, percent of control-specific binding, 10 μM test ligand, [3H]BTCP, recombinant transporter from CHO cells

| Structure (SMILES) | inhibition at 10 µM [%] |
| --- | --- |
| COc1ccc2[nH]cc(CCNC(C)=O)c2c1 [Melatonin, melatonin] | 4 |

target: T8, MT1 receptor (Homo sapiens, UniProt P48039); assay: Eurofins Cerep competition binding assay at MT1 receptor; details: 10 μM test ligand, [125I]2-iodomelatonin, recombinant receptor from CHO cells
T8 construct: host or cells: CHO cells (membrane preparation)
T8 sequence (P48039 whole entry): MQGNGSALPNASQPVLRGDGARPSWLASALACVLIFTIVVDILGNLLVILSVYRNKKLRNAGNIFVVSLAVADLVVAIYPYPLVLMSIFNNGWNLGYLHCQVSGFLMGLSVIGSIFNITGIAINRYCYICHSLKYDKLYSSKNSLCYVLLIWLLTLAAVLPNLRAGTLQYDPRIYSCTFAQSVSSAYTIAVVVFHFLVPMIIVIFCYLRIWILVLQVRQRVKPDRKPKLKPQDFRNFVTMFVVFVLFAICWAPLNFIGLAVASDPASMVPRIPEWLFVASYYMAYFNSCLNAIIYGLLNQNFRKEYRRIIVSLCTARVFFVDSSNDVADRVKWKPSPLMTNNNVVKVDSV

| Structure (SMILES) | MT1, percent of control-specific binding [%] |
| --- | --- |
| COc1cc(CC(C)N)c(OC)cc1Br (stereo not drawn) [DOB] | −3 |

same assay, conditions: read-out: MT1, percent of control-specific binding

| Structure (SMILES) | inhibition at 10 µM [%] |
| --- | --- |
| COc1ccc2[nH]cc(CCNC(C)=O)c2c1 [Melatonin, melatonin] | 98 |

same assay, conditions: read-out: MT1, percent of control-specific binding, 10 μM test ligand, [125I]2-iodomelatonin, recombinant receptor from CHO cells

| Structure (SMILES) | inhibition at 10 µM [%] |
| --- | --- |
| CNCC[C@H](Oc1cccc2ccccc12)c1cccs1 [Duloxetine, duloxetine] | 23 |

target: T9, norepinephrine transporter (NET) (Homo sapiens, UniProt P23975); assay: Eurofins Cerep competition binding assay at norepinephrine transporter; details: 10 μM test ligand, [3H]nisoxetine, recombinant transporter from CHO cells
T9 construct: host or cells: CHO cells (membrane preparation)
T9 sequence (P23975 whole entry): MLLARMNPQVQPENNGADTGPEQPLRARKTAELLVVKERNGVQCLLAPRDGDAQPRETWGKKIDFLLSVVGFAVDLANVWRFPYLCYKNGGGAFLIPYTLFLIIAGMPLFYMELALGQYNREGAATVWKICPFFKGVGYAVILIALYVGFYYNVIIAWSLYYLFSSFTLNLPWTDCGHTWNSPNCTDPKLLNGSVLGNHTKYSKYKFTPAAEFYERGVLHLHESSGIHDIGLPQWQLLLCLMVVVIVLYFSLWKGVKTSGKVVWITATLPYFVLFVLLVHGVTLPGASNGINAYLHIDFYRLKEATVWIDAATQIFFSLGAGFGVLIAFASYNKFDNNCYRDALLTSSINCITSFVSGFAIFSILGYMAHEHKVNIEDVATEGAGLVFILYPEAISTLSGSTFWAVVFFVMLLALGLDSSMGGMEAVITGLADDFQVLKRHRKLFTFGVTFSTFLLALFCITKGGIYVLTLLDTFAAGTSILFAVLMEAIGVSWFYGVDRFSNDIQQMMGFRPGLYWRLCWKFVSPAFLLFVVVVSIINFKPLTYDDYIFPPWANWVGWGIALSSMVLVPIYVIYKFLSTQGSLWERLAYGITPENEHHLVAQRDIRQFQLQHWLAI

| Structure (SMILES) | NET, percent of control-specific binding [%] |
| --- | --- |
| COc1cc(CC(C)N)c(OC)cc1Br (stereo not drawn) [DOB] | 6 |

same assay, conditions: read-out: NET, percent of control-specific binding, 10 μM test ligand, [3H]nisoxetine, recombinant transporter from CHO cells

| Structure (SMILES) | inhibition at 10 µM [%] |
| --- | --- |
| COc1ccc2[nH]cc(CCNC(C)=O)c2c1 [Melatonin, melatonin] | -2 |
